# Results reported in patent publication EP2033955A1, “Urea derivatives of 1H-pyrazol-4-carboxylic acid with neutrophil chemotaxis inhibiting activity” (Universita' Degli Studi Di Genova, priority 2007, dated 2009).
# Experiments:
# [1] = tested on: human peripheral blood neutrophils; test: Inhibition of IL8 (CXCL8)-induced neutrophil chemotaxis (48-well microchemotaxis chamber, leading-front method); format: cell-based; conditions: CXCL8 10^-8 M in lower compartment, neutrophils pre-incubated ten minutes with compound, means of six experiments, read-out: Inhibition of the migration of neutrophils induced by IL8 CI50
# Description: (§1) The inhibitory activity of the compounds according to the present invention towards fMLP- or CXCL8-induced chemotaxiswas evaluated following methods described in the literature (Giordano, C. et al., Bioorg. Med. Chem. 2006, 14, 2642 and documents cited in such article).
# (§2) Cells were obtained from blood of healthy subjects and human peripheral blood neutrophils were purified by using the standard techniques of dextran sedimentation (Pharmacia, Uppsala, Sweden), centrifugation on Ficoll-Paque (Pharmacia) and hypotonic lysis of contaminating red blood cells. The cells were washed twice and resuspended in Krebs-Ringer (KRPG) phosphate, pH 7.4, at a final concentration of 50 x 10^6 cells/ml and kept at room temperature until used. The neutrophils were 98-100% viable, as determined using the Trypan blue exclusion test.
# (§3) The f-MLP-OMe and the compounds to be tested (10-^2M) were dissolved in dimethylsulfoxide (DMSO) while CXCL8 (10^-5 M) was dissolved in water. All solutions were diluted in KRPG before use to obtain the final concentration required by the experimental protocol.
# (§4) A random locomotion test was carried out with a 48-well microchemotaxis chamber (Bio Probe, Milan) and migration into the filter was evaluated by the leading-front method (Gennari, C. et al, Eur. J. Org. Chem. (1998), p. 945) by estimating the distance in micrometres which the leading edge of the cell migrated. The actual control random movement is 35 ± 3 µm SE of six separate experiments carried out in duplicate.
# (§5) The directional movement or chemotaxis was measured with the same chamber used for the random locomotion, adding fMLP-OMe 10^-9 M or CXCL8 10^-8 M in the lower compartment.
# (§6) Each compound to be tested was added in the upper compartment of the chemotaxis chamber, diluted at concentrations varying from 10^-15 to 10^-5 M with KRPG containing 1 mg/ml of bovine serum albumin (BSA; Orha Behringwerke, Germany).
# (§7) The neutrophils were pre-incubated with the compounds to be tested ten minutes before the functional test. The data was expressed in terms of chemotactic index (C.I.), which is the ratio (migration towards test attractant - migration towards the buffer)/migration towards the buffer.
# (§8) The antagonism was measured as C.I. in the absence (100%) and in the presence of the compound to be tested at different concentrations. CI50 values were calculated from the sigmoid dose-response curve by a nonlinear regression analysis (Graph Pad Prism, San Diego, USA).
# (§9) The values are means of six separate experiments carried out twice. The standard errors are in the range of 0.02-0.09 C.I.
# [2] = tested on: human peripheral blood neutrophils; test: Inhibition of fMLP-induced neutrophil chemotaxis (48-well microchemotaxis chamber, leading-front method); format: cell-based; conditions: for IC50: read-out: Inhibition of the migration of neutrophils induced by fMLP CI50; for Percentage in brackets after the fMLP CI50 bound: meaning of the percentage not explained
# Description: as §1, §2, §3, §4, §5, §6, §7, §8, §9
# [3] = Homo sapiens, Neutrophil, fMLP-OMe 10^-9 M in lower compartment, neutrophils pre-incubated ten minutes with compound, means of six experiments
# [4] = fMLP-OMe 10^-9 M in lower compartment, neutrophils pre-incubated ten minutes with compound, means of six experiments
# [5] = Homo sapiens, Neutrophil, fMLP-OMe 10^-9 M, unit µM, highest tested concentration 10^-5 M
SMILES,"IC50 ([1]; Homo sapiens, Neutrophil)","IC50 [2, 3]",further results
"CCCC(O)Cn1ncc(C(=O)OCC)c1NC(=O)NCc1ccccc1 (centres unmarked) [Iq, 1-(2-hydroxypentyl)-5-(3-benzylureido)-1H-pyrazole-4-carboxylic acid ethyl ester]",0.0032 ± 0.0001 nM,0.00043 ± 5e-05 µM,
"CCCC(O)Cn1ncc(C(=O)OCC)c1NC(=O)NN1CCN(Cc2ccccc2)CC1 (centres unmarked) [Ir, 1-(2-hydroxypentyl)-5-[3-(4-benzyl)piperazinylureido)-1H-pyrazole-4-carboxylic acid ethyl ester]",,,"IC50 [1]: 0.09 ± 0.004 nM; IC50 [2, 4]: 0.0011 ± 0.0001 µM"
"CCOC(=O)c1cnn(CC(C)O)c1NC(=O)Nc1cccc2ccccc12 (centres unmarked) [Ih, 1-(2-hydroxypropyl)-5-[3-(1-naphthyl)ureido]-1H-pyrazole-4-carboxylic acid ethyl ester]",,0.0098 ± 0.0009 µM,
"CCOC(=O)c1cnn(CC(O)CC)c1NC(=O)NCc1ccccc1 (centres unmarked) [Ij, 1-(2-hydroxybutyl)-5-(3-benzylureido)-1H-pyrazole-4-carboxylic acid ethyl ester]",0.0074 ± 0.0002 nM,,"IC50 [2, 5]: > 10 µM; Percentage in brackets after the fMLP CI50 bound ([2]; fMLP-OMe 10^-9 M): 54%"
"CCOC(=O)c1cnn(CC(O)CC)c1NC(=O)Nc1cccc2ccccc12 (centres unmarked) [Io, 1-(2-hydroxybutyl)-5-[3-(1-naphthyl)ureido]-1H-pyrazole-4-carboxylic acid ethyl ester]",9.6 ± 1 nM,0.012 ± 0.0012 µM,
"CCOC(=O)c1cnn(CC(C)O)c1NC(=O)NC(C)C (centres unmarked) [Ib, 1-(2-hydroxypropyl)-5-(3-isopropylureido)-1H-pyrazole-4-carboxylic acid ethyl ester]",,0.09 ± 0.0093 µM,
"CCOC(=O)c1cnn(CC(C)O)c1NC(=O)Nc1cccc(F)c1 (centres unmarked) [If, 1-(2-hydroxypropyl)-5-[3-(3-fluorophenyl)ureido]-1H-pyrazole-4-carboxylic acid ethyl ester]",,,"IC50 [2, 5]: > 10 µM; Percentage in brackets after the fMLP CI50 bound ([2]; fMLP-OMe 10^-9 M): 60%"
"CCOC(=O)c1cnn(CC(C)O)c1NC(=O)NN1CCN(Cc2ccccc2)CC1 (centres unmarked) [Id, 1-(2-hydroxypropyl)-5-[3-(4-benzyl)piperazinylureido]-1H-pyrazole-4-carboxylic acid ethyl ester]",,,"Percentage in brackets after the fMLP CI50 bound ([2]; fMLP-OMe 10^-9 M): 63%; IC50 ([2]; fMLP-OMe 10^-9 M, unit µM, highest tested concentration 10^-5 M): > 10 µM"
"CCOC(=O)c1cnn(CC(O)CC)c1NC(=O)Nc1ccc(F)cc1 (centres unmarked) [In, 1-(2-hydroxybutyl)-5-[3-(4-fluorophenyl)ureido]-1H-pyrazole-4-carboxylic acid ethyl ester]",1.9 ± 0.13 nM,0.0032 ± 0.0004 µM,
"CCOC(=O)c1cnn(CC(O)CC)c1NC(=O)NN1CCN(Cc2ccccc2)CC1 (centres unmarked) [Ik, 1-(2-hydroxybutyl)-5-[3-(4-benzyl)piperazinylureido)-1H-pyrazole-4-carboxylic acid ethyl ester]",,,"IC50 [2, 4]: 2 ± 0.2 µM"
"CCOC(=O)c1cnn(CC(O)CC)c1NC(=O)Nc1ccccc1F (centres unmarked) [Il, 1-(2-hydroxybutyl)-5-[3-(2-fluorophenyl)ureido]-1H-pyrazole-4-carboxylic acid ethyl ester]",0.0016 ± 0.0002 nM,0.12 ± 0.012 µM,
"CCOC(=O)c1cnn(CC(C)O)c1NC(=O)Nc1ccccc1F (centres unmarked) [Ie, 1-(2-hydroxypropyl)-5-[3-(2-fluorophenyl)ureido]-1H-pyrazole-4-carboxylic acid ethyl ester]",,0.1 ± 0.0103 µM,
"CCOC(=O)c1cnn(CC(O)CC)c1NC(=O)NC(C)C (centres unmarked) [Ii, 1-(2hydroxybutyl)-5-(3-isopropylureido)-1H-pyrazole-4-carboxylic acid ethyl ester]",0.0042 ± 0.0007 nM,,"IC50 [2, 5]: > 10 µM; Percentage in brackets after the fMLP CI50 bound ([2]; fMLP-OMe 10^-9 M): 52%"
"CCOC(=O)c1cnn(CC(O)CC)c1NC(=O)Nc1cccc(F)c1 (centres unmarked) [Im, 1-(2-hydroxybutyl)-5-[3-(3-fluorophenyl)ureido]-1H-pyrazole-4-carboxylic acid ethyl ester]",0.36 ± 0.06 nM,0.00019 ± 1e-05 µM,
"CCOC(=O)c1cnn(CC(O)c2ccccc2)c1NC(=O)Nc1cccc2ccccc12 (centres unmarked) [Ia, 1-(2-hydroxy-2-phenylethyl)-5-[3-(1-naphthyl)ureido]-1H-pyrazole-4-carboxylic acid ethyl ester]",0.0076 ± 0.001 nM,0.0078 ± 0.00052 µM,
"CCOC(=O)c1cnn(CC(C)O)c1NC(=O)Nc1ccc(F)cc1 (centres unmarked) [Ig, 1-(2-hydroxypropyl)-5-[3-(4-fluorophenyl)ureido]-1H-pyrazole-4-carboxylic acid ethyl ester]",0.2 ± 0.06 nM,,"IC50 [2, 5]: > 10 µM; Percentage in brackets after the fMLP CI50 bound ([2]; fMLP-OMe 10^-9 M): 55%"
"CCOC(=O)c1cnn(CC(C)O)c1NC(=O)NCc1ccccc1 (centres unmarked) [Ic, 1-(2-hydroxypropyl)-5-(3-benzylureido)-1H-pyrazole-4-carboxylic acid ethyl ester]",,0.015 ± 0.0011 µM,
COC(=O)[C@H](Cc1ccccc1)NC(=O)[C@H](CC(C)C)NC(=O)[C@H](CCSC)NC=O [fMLP-OMe],,,chemotactic index (C.I.) ([2]; chemoattractant alone at 10^-9): 1.2
"CCCC(O)Cn1ncc(C(=O)OCC)c1NC(=O)NC(C)C (centres unmarked) [Ip, 1-(2-hydroxypentyl)-5-(3-isopropylureido)-1H-pyrazole-4-carboxylic acid ethyl ester]",1 ± 0.05 nM,0.02 ± 0.0022 µM,
